This note sets out measurements from ChEMBL document CHEMBL1158510, “Hybrid anticancer agents: isothiocyanate-progesterone conjugates as chemotherapeutic agents and insights into their cytotoxicities” (Bioorg Med Chem Lett, 2010).

Format in all cases: functional, cell-based
One assay relates to MCF7. Description: Cytotoxicity against human MCF7 cells after 72 hrs by MTT assay. Conditions: MCF7, 72 h.
For the next assay, the system named is MDA-MB-231. Description: Cytotoxicity against human MDA-MB-231 cells after 72 hrs by MTT assay. Conditions: MDA-MB-231, 72 h.
A further assay has as its system BT-20. Kind of assay: Cytotoxicity against human BT20 cells after 72 hrs by MTT assay. Particulars: BT-20, 72 h. For orientation: Tetrazolium assays rely on reduction of a dye to a coloured formazan, in cell work by metabolically active cells.
The next assay concerns PC-3. Description: Cytotoxicity against human PC3 cells after 72 hrs by MTT assay. Conditions: PC-3, 72 h.

Usually IC50 stands for the point on the concentration scale where inhibition reaches its midpoint. Read a low IC50 as greater potency. As for `CC(=O)[C@H]1CC[C@H]2[C@@H]3CCC4=C/C(=N/NC(N)=S)CC[C@]4(C)[C@H]3CC[C@]12C`, the IC50 in the assay with MCF7 is 20 µM; in the assay with MDA-MB-231 it was 25 µM; with BT-20, 5.3 µM; in the assay with PC-3 it was 16 µM.
